In patent EP4410284A1, “COMPOUND AND METHOD FOR THE TREATMENT OF ZELLWEGER SPECTRUM DISORDER” (Apteeus, priority 2023, dated 2024):
Like-named read-outs stand apart in the source and are kept apart here.

Legend:
[1] = tested on: GM16513 cells; assay: Catalase import immunofluorescence, high-content screening (% importing cells); type: cell-based, human; settings: for EC50 / Emax: Homo sapiens, 72 h; for Emax: read-out: Max Efficacy (% Importing cells)
[2] = tested on: GM16513 cells; type: cell-based; settings: 3 days, PI positive cells (dead cells)
Experimental: (§1) Images were acquired using the EnSight multimode plate reader (PerkinElmer) and analysis was done using Columbus analysis software (PerkinElmer). […] Then the total number of cells and the % of dead cells was calculated.
(§2) All HDAC inhibitors were tested at 1.3 and 10 µM for 3 days on GM16513 and PEX405 cells.

[3] = tested on: PEX405 cells; assay: Catalase import immunofluorescence, high-content screening (% importing cells); type: cell-based, human; settings: PEX405 cells, 3 days
[4] = tested on: PEX405 cells; type: cell-based; settings: 3 days, PI positive cells (dead cells)
Experimental: as §1, §2

[5] = GM16513 cells, dose response with 6 concentrations, 3 days, read-out: EC50
[6] = GM16513 cells, dose response with 6 concentrations, 3 days

## Cn1c(CCCCCCC(=O)NO)nc2cc(N(CCCl)CCCl)ccc21 [EDO-S101]
[1]; GM16513 cells, 1.3 µM, 3 days
  % Importing cells: 35%
[1]; GM16513 cells, 10 µM, 3 days
  % Importing cells: 89%
[1]
  EC50: 3000 nM
  Emax: 90%
[2]; 1.3 µM
  % PI+ cells: 2%
[2]; 10 µM
  % PI+ cells: 8%
[3]; 1.3 µM
  % Importing cells: 7%
[3]; 10 µM
  % Importing cells: 55%
[4]; 1.3 µM
  % PI+ cells: 1%
[4]; 10 µM
  % PI+ cells: 7%

## Nc1ccccc1NC(=O)c1ccc(CNC(=O)OCc2cccnc2)cc1 [Entinostat]
[1]; GM16513 cells, 1.3 µM, 3 days
  % Importing cells: 45%
[1]; GM16513 cells, 10 µM, 3 days
  % Importing cells: 58%
[1]; [5]
  EC50: 470 nM
[1]; [6]
  Emax: 54%
[2]; 1.3 µM
  % PI+ cells: 2%
[2]; 10 µM
  % PI+ cells: 7%
[3]; 1.3 µM
  % Importing cells: 15%
[3]; 10 µM
  % Importing cells: 12%
[4]; 1.3 µM
  % PI+ cells: 2%
[4]; 10 µM
  % PI+ cells: 6%

## Cl.O=C(NO)c1ccc(Cn2cc(-c3ccc(CN4CCCC4)cc3)nn2)cc1 [FNDR-20123]
[1]; GM16513 cells, 1.3 µM, 3 days
  % Importing cells: 84%
[1]; GM16513 cells, 10 µM, 3 days
  % Importing cells: 47%
[2]; 1.3 µM
  % PI+ cells: 11%
[2]; 10 µM
  % PI+ cells: 40%
[3]; 1.3 µM
  % Importing cells: 7%
[3]; 10 µM
  % Importing cells: 0%
[4]; 1.3 µM
  % PI+ cells: 9%
[4]; 10 µM
  % PI+ cells: 61%

## CC1(C)c2cccc(C(=O)NO)c2CN1c1cnc(C(F)(F)F)cn1 [FT895]
[1]; GM16513 cells, 1.3 µM, 3 days
  % Importing cells: 14%
[1]; GM16513 cells, 10 µM, 3 days
  % Importing cells: 4%
[2]; 1.3 µM
  % PI+ cells: 1%
[2]; 10 µM
  % PI+ cells: 7%
[3]; 1.3 µM
  % Importing cells: 1%
[3]; 10 µM
  % Importing cells: 0%
[4]; 1.3 µM
  % PI+ cells: 0%
[4]; 10 µM
  % PI+ cells: 1%

## COc1ccc(-c2nc(N3CCOCC3)c3sc(CN(C)c4ncc(C(=O)NO)cn4)cc3n2)cn1 [Fimepinostat]
[1]; GM16513 cells, 1.3 µM, 3 days
  % Importing cells: 81%
[1]; GM16513 cells, 10 µM, 3 days
  % Importing cells: 61%
[1]; [5]
  EC50: 10 nM
[1]; [6]
  Emax: 92.5%
[2]; 1.3 µM
  % PI+ cells: 25%
[2]; 10 µM
  % PI+ cells: 29%
[3]; 1.3 µM
  % Importing cells: 25%
[3]; 10 µM
  % Importing cells: 4%
[4]; 1.3 µM
  % PI+ cells: 43%
[4]; 10 µM
  % PI+ cells: 55%

## Oc1cc(O)cc(/C=C/c2c(O)cccc2O)c1 [Gnetol]
[1]; GM16513 cells, 1.3 µM, 3 days
  % Importing cells: 12%
[1]; GM16513 cells, 10 µM, 3 days
  % Importing cells: 9%
[2]; 1.3 µM
  % PI+ cells: 1%
[2]; 10 µM
  % PI+ cells: 1%
[3]; 1.3 µM
  % Importing cells: 2%
[3]; 10 µM
  % Importing cells: 3%
[4]; 1.3 µM
  % PI+ cells: 1%
[4]; 10 µM
  % PI+ cells: 1%

## COc1ccc(/C=C/C(=O)NO)c(-c2ccc(-c3ccccc3)cc2)c1 [HDAC8-IN-1]
[1]; GM16513 cells, 1.3 µM, 3 days
  % Importing cells: 10%
[1]; GM16513 cells, 10 µM, 3 days
  % Importing cells: 3%
[2]; 1.3 µM
  % PI+ cells: 2%
[2]; 10 µM
  % PI+ cells: 14%
[3]; 1.3 µM
  % Importing cells: 2%
[3]; 10 µM
  % Importing cells: 0%
[4]; 1.3 µM
  % PI+ cells: 0%
[4]; 10 µM
  % PI+ cells: 2%

## O=C(CCc1ccc(CN[C@H](C(=O)OC2CCCC2)C2CCCCC2)cn1)NO [HDAC-IN-3]
[1]; GM16513 cells, 1.3 µM, 3 days
  % Importing cells: 50%
[1]; GM16513 cells, 10 µM, 3 days
  % Importing cells: 81%
[2]; 1.3 µM
  % PI+ cells: 3%
[2]; 10 µM
  % PI+ cells: 26%
[3]; 1.3 µM
  % Importing cells: 11%
[3]; 10 µM
  % Importing cells: 0%
[4]; 1.3 µM
  % PI+ cells: 4%
[4]; 10 µM
  % PI+ cells: 43%

## O=C(NO)c1ccc(CC(=O)N(CCO)c2ccccc2)cc1 [HPOB]
[1]; GM16513 cells, 1.3 µM, 3 days
  % Importing cells: 29%
[1]; GM16513 cells, 10 µM, 3 days
  % Importing cells: 55%
[2]; 1.3 µM
  % PI+ cells: 1%
[2]; 10 µM
  % PI+ cells: 1%
[3]; 1.3 µM
  % Importing cells: 6%
[3]; 10 µM
  % Importing cells: 13%
[4]; 1.3 µM
  % PI+ cells: 1%
[4]; 10 µM
  % PI+ cells: 1%

## O=C(c1ccc(Cl)cc1Cl)n1nnc2ccccc21 [ITSA-1]
[1]; GM16513 cells, 1.3 µM, 3 days
  % Importing cells: 9%
[1]; GM16513 cells, 10 µM, 3 days
  % Importing cells: 12%
[2]; 1.3 µM
  % PI+ cells: 1%
[2]; 10 µM
  % PI+ cells: 1%
[3]; 1.3 µM
  % Importing cells: 3%
[3]; 10 µM
  % Importing cells: 1%
[4]; 1.3 µM
  % PI+ cells: 0%
[4]; 10 µM
  % PI+ cells: 0%

## O=C(NO)c1ccc(Cn2c(=O)n(CCc3ccccc3)c(=O)c3ccccc32)cc1 [J22352]
[1]; GM16513 cells, 1.3 µM, 3 days
  % Importing cells: 30%
[1]; GM16513 cells, 10 µM, 3 days
  % Importing cells: 47%
[2]; 1.3 µM
  % PI+ cells: 1%
[2]; 10 µM
  % PI+ cells: 3%
[3]; 1.3 µM
  % Importing cells: 5%
[3]; 10 µM
  % Importing cells: 3%
[4]; 1.3 µM
  % PI+ cells: 0%
[4]; 10 µM
  % PI+ cells: 2%

## O=C(NO)c1ccc(CN(c2cnccn2)c2cnccn2)cc1 [KA2507]
[1]; GM16513 cells, 1.3 µM, 3 days
  % Importing cells: 17%
[1]; GM16513 cells, 10 µM, 3 days
  % Importing cells: 52%
[1]; [5]
  EC50: 14300 nM
[1]; [6]
  Emax: 100%
[2]; 1.3 µM
  % PI+ cells: 1%
[2]; 10 µM
  % PI+ cells: 2%
[3]; 1.3 µM
  % Importing cells: 2%
[3]; 10 µM
  % Importing cells: 18%
[4]; 1.3 µM
  % PI+ cells: 1%
[4]; 10 µM
  % PI+ cells: 1%

## Cc1cc(C)cc(C(=O)NOCCCCCC(=O)NO)c1 [LMK-235]
[1]; GM16513 cells, 1.3 µM, 3 days
  % Importing cells: 86%
[1]; GM16513 cells, 10 µM, 3 days
  % Importing cells: 95%
[2]; 1.3 µM
  % PI+ cells: 2%
[2]; 10 µM
  % PI+ cells: 15%
[3]; 1.3 µM
  % Importing cells: 45%
[3]; 10 µM
  % Importing cells: 18%
[4]; 1.3 µM
  % PI+ cells: 1%
[4]; 10 µM
  % PI+ cells: 16%

## Cn1c(/C=C/C(=O)NO)ccc1/C=C/C(=O)c1cccc(F)c1 [MC1568]
[1]; GM16513 cells, 1.3 µM, 3 days
  % Importing cells: 25%
[1]; GM16513 cells, 10 µM, 3 days
  % Importing cells: 21%
[2]; 1.3 µM
  % PI+ cells: 3%
[2]; 10 µM
  % PI+ cells: 90%
[3]; 1.3 µM
  % Importing cells: 5%
[3]; 10 µM
  % Importing cells: 6%
[4]; 1.3 µM
  % PI+ cells: 0%
[4]; 10 µM
  % PI+ cells: 91%

## O=C(NO)c1ccc(CNc2cccc3cccnc23)cc1 [MPT0G211]
[1]; GM16513 cells, 1.3 µM, 3 days
  % Importing cells: 29%
[1]; GM16513 cells, 10 µM, 3 days
  % Importing cells: 65%
[2]; 1.3 µM
  % PI+ cells: 1%
[2]; 10 µM
  % PI+ cells: 4%
[3]; 1.3 µM
  % Importing cells: 6%
[3]; 10 µM
  % Importing cells: 19%
[4]; 1.3 µM
  % PI+ cells: 1%
[4]; 10 µM
  % PI+ cells: 2%

## O=C(/C=C/c1ccc(O)c(O)c1)c1ccc(O[C@@H]2O[C@H](CO)[C@@H](O)[C@H](O)[C@H]2O)c(O)c1O [Marein]
[1]; GM16513 cells, 1.3 µM, 3 days
  % Importing cells: 20%
[1]; GM16513 cells, 10 µM, 3 days
  % Importing cells: 22%
[2]; 1.3 µM
  % PI+ cells: 1%
[2]; 10 µM
  % PI+ cells: 77%
[3]; 1.3 µM
  % Importing cells: 5%
[3]; 10 µM
  % Importing cells: 4%
[4]; 1.3 µM
  % PI+ cells: 0%
[4]; 10 µM
  % PI+ cells: 74%

## Nc1ccccc1NC(=O)c1ccc(CNc2nccc(-c3cccnc3)n2)cc1 [Mocetinostat]
[1]; GM16513 cells, 1.3 µM, 3 days
  % Importing cells: 60%
[1]; GM16513 cells, 10 µM, 3 days
  % Importing cells: 39%
[1]; [5]
  EC50: 250 nM
[1]; [6]
  Emax: 50%
[2]; 1.3 µM
  % PI+ cells: 4%
[2]; 10 µM
  % PI+ cells: 9%
[3]; 1.3 µM
  % Importing cells: 15%
[3]; 10 µM
  % Importing cells: 9%
[4]; 1.3 µM
  % PI+ cells: 3%
[4]; 10 µM
  % PI+ cells: 29%

## Nc1ccccc1NC(=O)CCCCCC(=O)Nc1ccccc1 [NKL 22]
[1]; GM16513 cells, 1.3 µM, 3 days
  % Importing cells: 28%
[1]; GM16513 cells, 10 µM, 3 days
  % Importing cells: 55%
[2]; 1.3 µM
  % PI+ cells: 1%
[2]; 10 µM
  % PI+ cells: 4%
[3]; 1.3 µM
  % Importing cells: 7%
[3]; 10 µM
  % Importing cells: 13%
[4]; 1.3 µM
  % PI+ cells: 0%
[4]; 10 µM
  % PI+ cells: 1%

## Nc1ccccc1NC(=O)c1ccc(Cn2cc(-c3ccc(C(=O)NCc4cccnc4)cc3)nn2)cc1 [Nampt-IN-3]
[1]; GM16513 cells, 1.3 µM, 3 days
  % Importing cells: 80%
[1]; GM16513 cells, 10 µM, 3 days
  % Importing cells: 74%
[2]; 1.3 µM
  % PI+ cells: 3%
[2]; 10 µM
  % PI+ cells: 3%
[3]; 1.3 µM
  % Importing cells: 33%
[3]; 10 µM
  % Importing cells: 31%
[4]; 1.3 µM
  % PI+ cells: 1%
[4]; 10 µM
  % PI+ cells: 4%

## O=C(NO)c1cnc(N2C[C@@H]3[C@H](C2)[C@H]3NCc2ccc3cc(F)ccc3n2)nc1 [Nanatinostat]
[1]; GM16513 cells, 1.3 µM, 3 days
  % Importing cells: 88%
[1]; GM16513 cells, 10 µM, 3 days
  % Importing cells: 78%
[1]; [5]
  EC50: 50 nM
[1]; [6]
  Emax: 93%
[2]; 1.3 µM
  % PI+ cells: 12%
[2]; 10 µM
  % PI+ cells: 37%
[3]; 1.3 µM
  % Importing cells: 14%
[3]; 10 µM
  % Importing cells: 0%
[4]; 1.3 µM
  % PI+ cells: 15%
[4]; 10 µM
  % PI+ cells: 54%

## CCCCN(Cc1ccc(C(=O)NO)cc1)C(=O)Nc1ccccc1 [Nexturastat A]
[1]; GM16513 cells, 1.3 µM, 3 days
  % Importing cells: 35%
[1]; GM16513 cells, 10 µM, 3 days
  % Importing cells: 83%
[2]; 1.3 µM
  % PI+ cells: 2%
[2]; 10 µM
  % PI+ cells: 4%
[3]; 1.3 µM
  % Importing cells: 8%
[3]; 10 µM
  % Importing cells: 27%
[4]; 1.3 µM
  % PI+ cells: 1%
[4]; 10 µM
  % PI+ cells: 3%
